Test results published in patent EP3364964B1, “COMPOSITION BASED ON DIHYDROMYRICETIN AND A ZINC SALT FOR THE TREATMENT OF ACNE AND OILY SKIN” (Thorel, Jean-Noël, priority 2015, dated 2017).
Several values for one entry are separate records, joined by “and”; a condition that tells them apart may be missing. Identical values can stand only once.

Key:
[1] = test system: collagénase issue de Clostridium histolyticum; test: Anti-collagenase activity, MMP-1 kit, in tubo fluorescence test; format: biochemical
Description: L'activité anti-collagénase est mesurée grâce au kit MMP-1 (Molecular Probes; Réf E12055). Le principe est basé sur la capacité d'une enzyme de la famille des MMP (« Marix Metallo-Proteinase ») zinc-dépendantes, en l'occurrence la collagénase issue de Clostridium histolyticum, à hydrolyser son substrat (collagène-I) pour donner des composés fluorescents mesurables.
En présence d'un inhibiteur, l'action de l'enzyme est altérée empêchant l'hydrolyse de son substrat. La 1,10 phénanthroline est utilisée comme le témoin positif d'inhibition de l'enzyme. La fluorescence émise à 535 nm est mesurée après excitation à 485 nm.
La 1,10-phenanthroline monohydrate (10mM), un inhibiteur connu des MMP fourni dans le kit, est utilisée comme contrôle positif.
Les contrôles négatifs suivants ont été réalisés : • Témoin H2O : ce témoin a été utilisé pour solubiliser la 1-10-phenantroline monohydrate; il représente arbitrairement 100% d'activité de l'enzyme par rapport aux résultats obtenus avec ce contrôle. • Témoin solvant (DMSO 1%) : quantité de solvant inclus dans l'ensemble des actifs et associations à tester; il représente arbitrairement 100% d'activité de l'enzyme par rapport aux résultats obtenus avec les actifs et associations testés.
Le gluconate de zinc a été testé à la concentration de 0,1% (en poids).
La DHM a été testée aux concentrations suivantes : 0,002% et 0,05% (en poids). L'association gluconate de zinc 0,1% + DHM 0,002% a également été testée.
Les analyses quantitatives sont exprimées sous forme de moyenne ± l'écart type. La significativité statistique est déterminée par un test de Student. Les différences sont considérées comme statistiquement significatives entre l'actif testé et son témoin solvant à partir de p<0.05. (NS : […]).

[2] = Protection of squalene against oxidation induced by hydrogen peroxide (GC/MS of non-oxidised squalene); details: H2O2 6%, 1 h; for Squalène Moyenne: mean; for Squalène (µg/ml): single trials (Essai)
Description: L'objectif de ce test est d'évaluer l'inhibition par la DHM de l'oxydation du squalène, induite par le peroxyde d'hydrogène (H2O2). Le Trolox (6-Hydroxy-2,5,7,8-tétraméthylchroman-2-carboxylic acid), un équivalent hydrosoluble de la vitamine E, est un antioxydant connu et est utilisé dans ces tests en tant que témoin positif.
Le squalène (Sigma Aldrich) est dans un premier temps solubilisé dans une chambre réactionnelle.
L'oxydation du squalène est induite par l'ajout d'une solution de peroxyde d'hydrogène (H2O2 à une concentration finale de 6%).
Les actifs devant être évalués sont ajoutés au mélange réactionnel. Ainsi, le Trolox à 0,8% en poids est utilisé comme témoin positif de la protection contre l'oxydation du squalène.
Un contrôle positif, correspondant au squalène incubé en présence d'H2O2, et un contrôle négatif, correspondant au squalène non exposé à l'H2O2, sont également réalisés.
Le mélange obtenu est mis sous agitation pendant une heure, à température ambiante et à l'abri de la lumière.
Le squalène est ensuite extrait du milieu réactionnel à l'aide d'une extraction liquide/liquide. Après évaporation de la solution organique, le résidu est solubilisé dans une solution de chloroforme et le squalène est analysé par une méthode de chromatographie GC/MS.
La mesure de la concentration en squalène permet d'estimer la quantité de squalène ayant été oxydée au cours de la réaction. En effet et selon la technique de mesure utilisée, seule la forme non oxydée est détectée.

[3] = test system: lignée de sébocytes humains SEB0662; test: MTT cell viability / cytotoxicity test in sebocytes; format: cell-based
Method: (§1) Dans cette étude, on utilise la lignée de sébocytes humains SEB0662.
(§2) Les cellules sont cultivées dans le milieu de culture classique des sébocytes, à 37°C et en présence de 5% de CO2. Les cellules sont utilisées au 7^ème passage.
La sélection des doses d'actifs est réalisée grâce à un test de viabilité cellulaire au MTT. On retient les doses qui permettent de maintenir une viabilité supérieure à 90%.
L'erreur standard de la moyenne (esm) représente l'écart de ln moyenne de l'échantillon par rapport à la moyenne de la population. L'esm est calculée en divisant l'écart-type (Sd) par la racine carrée de la taille de l'échantillon (sqrt(n)). Erreur standard de la moyenne(esm) = écart-type(Sd)/sqrt(n) [formula] Pourcentage de viabilité: viabilité(%) = (DOcomposé/DOtémoin) × 100 [formula] Pourcentage de stimulation: Stimulation(%) = [(Valeur/moyennedutémoin)×100]−100 [formula] Pourcentage de d'inhibition: Inhibition(%) = 100−[(Valeur/moyennedutémoin)×100] [formula]

sébocytes SEB0662 = test: IGF-1 induced lipid synthesis in sebocytes (Bodipy lipid droplet labelling, 14 days); format: cell-based, humains; details: 0,001%, IGF-1 20 ng/ml
Method: La présente étude vise à étudier l'effet de la DHM et/ou du gluconate de zinc (Zn) sur l'inhibition de la synthèse des lipides, induite par l'ajout d'IGF-1, dans les sébocytes. Cet effet est suivi par marquage, à l'aide d'une sonde lipidique fluorescente couplée au Bodipy®, des sébocytes SEB0662 cultivés en monocouche pendant 14 jours en milieu de différenciation (supplémenté en IGF-1 à 20 ng/ml).
as §1, §2
Pour l'évaluation des actifs, un milieu dit de différenciation (milieu de culture classique supplémenté en dihydrotestostérone, albumine bovine sérique, acide linoléïque, glucose, sérum de veau fœtal, hydrocortisone et agonistes des PPAR (« Peroxysome Proliferator Activated Receptor »)), complémenté en IGF-1 à 20 ng/ml, est utilisé. L'ajout d'IGF-1 stimule la production de lipides par les sébocytes. […]
Les marquages sont quantifiés par mesure de l'intensité de fluorescence de la sonde rapportée au nombre de noyaux identifiés par le Hoechst (intégration des données numériques par le logiciel Developer Toolbox 1 .5, GE Healthcare). […]

[4] = test system: Propionibacterium acnes ATCC 69.19; test: Growth inhibition of P. acnes, micromethod of Lens-Lisbonne et al. (MIC); format: cell-based; details: first concentration with growth <= 20 %, 36° C, 3 to 5 days, anaerobic
Description: L'objet de cette étude est d'évaluer l'activité inhibitrice de composés vis-à-vis de la souche Propionibacterium acnes selon les principes de la méthode décrite par Lens-Lisbonne et al. (1987).
La méthode de Lens-Lisbonne et al. permet de tester en milieu liquide le pouvoir antibactérien de substances faiblement solubles et/ou très volatiles, et permet d'éviter les méthodes par diffusion ou en phase vapeur. Brièvement, elle consiste à mettre en présence des volumes égaux de produit à tester et de milieu inoculé, à différentes concentrations. […] L'activité inhibitrice est évaluée à partir des mesures d'absorbance du mélange, comparées aux conditions contrôle. […]
Après incubation de la microplaque pendant une durée définie, la densité optique à 620 nm est mesurée. Les résultats sont exprimés en pourcentage de croissance calculé par rapport à un témoin de croissance et un témoin d'absorbance selon l'équation suivante: Pourcentage de croissance = (DOmesuréeduproduitàlaconcentrationC−DOmesuréedutémoind'absorbanceproduitàlaconcentrationC)/DO mesurée témoin de croissance [formula] […]
Le test est effectué sur microplaque 96 puits. En synthèse, 30 puits sont utilisés pour les témoins d'absorbance; 30 puits sont utilisés pour les essais. […]

Compound: O.c1cnc2c(c1)ccc1cccnc12 [1-10-phénanthroline monohydrate, 1,10-phenanthroline monohydrate, reference compound]
- inhibition de l'activité collagénase ([1]; 10mM, versus H2O control): 79,6%

Compound: O=C1c2c(O)cc(O)cc2O[C@H](c2cc(O)c(O)c(O)c2)[C@H]1O [DHM, (2R,3R)-3,5,7-trihydroxy-2-(3,4,5-trihydroxyphenyl)-2,3-dihydrochromen-4-one]
- Indice de protection (%) ([2]; 0,01 % en poids): 35,19%
- Squalène Moyenne ([2]; 0,01 % en poids): 26,10 µg/ml
- Squalène (µg/ml) ([2]; 0,01 % en poids): 27,01 µg/ml and 24,86 µg/ml and 26,42 µg/ml
- Indice de protection (%) ([2]; 0,05 % en poids): 45,28%
- Squalène Moyenne ([2]; 0,05 % en poids): 33,58 µg/ml
- Squalène (µg/ml) ([2]; 0,05 % en poids): 34,44 µg/ml and 32,88 µg/ml and 33,41 µg/ml
- Indice de protection (%) ([2]; 0,005 % en poids): 28,64%
- Squalène Moyenne ([2]; 0,005 % en poids): 21,24 µg/ml
- Squalène (µg/ml) ([2]; 0,005 % en poids): 19,84 µg/ml and 21,37 µg/ml and 22,51 µg/ml
- effet cytotoxique ([3]; tested up to 0,003%): ne montre pas d'effet cytotoxique
- inhibition de l'activité collagénase ([1]; 0,05% en poids, versus DMSO 1% control): 30,1%
- inhibition de l'activité collagénase ([1]; 0,002% en poids, versus DMSO 1% control): 3,5%

Compound: Cc1c(C)c2c(c(C)c1O)CCC(C)(C(=O)O)O2 (stereo not drawn) [Trolox, 6-Hydroxy-2,5,7,8-tétraméthylchroman-2-carboxylic acid, reference compound]
- Indice de protection (%) ([2]; 0,8 % en poids): 42,94%
- Squalène Moyenne ([2]; 0,8 % en poids): 31,85 µg/ml
- Squalène (µg/ml) ([2]; 0,8 % en poids): 31,41 µg/ml and 31,88 µg/ml and 32,25 µg/ml and 34,60 µg/ml and 32,49 µg/ml

Compound: gluconate de zinc [reference compound]
- cytotoxicité ([3]; 0,001%): ne présente pas de cytotoxicité
- inhibition de la synthèse des lipides induite par l'IGF-1 (sébocytes SEB0662): ~15%
- inhibition de l'activité collagénase ([1]; 0,1% en poids, versus DMSO 1% control): 80,2%
- CMI microméthode (%-m/v) ([4]; Test 1): 0,05 %-m/v
- CMI microméthode (%-m/v) ([4]; Test 2): 0,05 %-m/v
